# Assay results from patent publication US20110200662A1, “Method For The Treatment Of Proliferative Disorders Of The Eye” (priority 2008, published 2011).
# B1: ranibizumab (antibody, chains of the INN, looked up, V domains shown)
# VH: EVQLVESGGGLVQPGGSLRLSCAASGYDFTHYGMNWVRQAPGKGLEWVGWINTYTGEPTYAADFKRRFTFSLDTSKSTAYLQMNSLRAEDTAVYYCAKYPYYYGTSHWYFDVWGQGTLVTVSS
# VL: DIQLTQSPSSLSASVGDRVTITCSASQDISNYLNWYQQKPGKAPKVLIYFTSSLHSGVPSRFSGSGSGTDFTLTISSLQPEDFATYYCQQYSTVPWTFGQGTKVEIK
# What was measured:
# [1] = tested on: DNA repair response (RPA, γ-H2AX); settings: non-proliferating cells; cited from earlier work
# [2] = tested on: cell proliferation; settings: cited from earlier work
# [3] = tested on: approximately 60 different human cancer cell lines; assay: NCI DTP Human Tumor Cell Line Screen (colorimetric assay, 48 hours); type: cell-based; settings: average value across the cell lines, 48 hours incubation
# Method: FIG. 1 summarizes the screening results obtained with forty different anticancer agents in the National Cancer Institute (NCI) DTP Human Tumor Cell Line Screen in which approximately 60 different human cancer cell lines were incubated for 48 hours with the anticancer drugs. […] For details on the assay, find on the wide world web at dtp.nci.nih.gov/branches/btb/ivclsp. FIG. 1 presents for each drug the average value across the cell lines of the TGI, the LC50, and the ratio of LC50 to TGI.
# In a preferred embodiment the drug is bizelesin. Bizelesin has a number of unexpected properties that make it highly suited for treating proliferative disorders of the eye. The drug is an ultra-potent irreversible inhibitor of cell proliferation. As few as 1 to approximately 10 bizelesin-DNA crosslinks can inhibit cell proliferation. The small number of drug molecules per cell needed to inhibit clonogenic potential limits collateral damage to cellular processes in nonproliferating cells. […] There is a large difference between the bizelesin concentration that inhibits cell proliferation and the concentration that kills cells. This unexpected property is in sharp contrast to typical anticancer drugs as evidence by the data shown in FIG. 1, which summarizes screening results obtained with forty different anticancer agents in the National Cancer Institute (NCI) DTP Human Tumor Cell Line Screen. […]
# [4] = tested on: retinal neovascularization; assay: Mouse model of ischemic proliferative retinopathy, intravitreal injection
# Method: Intravitreal bizelesin was evaluated in the mouse model of ischemic proliferative retinopathy.
# Bizelesin was dissolved in DMSO PharmaSolvent (Gaylord Chemical, Inc.) at 20 microgram/ml and filtered sterilized with a 0.2 micron Milliex-LG Millipore filter. […] The bizelesin solution was stored at −65 C or below. Immediately prior to administration the drug solution was thawed and diluted with sterile phosphate buffered saline (PBS).
# In brief, for the ischemic proliferative retinopathy model, liters of C57BL/6 mice were exposed to 75% oxygen from P7 to P12 (P=age in days) and then returned to room air. On P12 the mice were anesthetized and given an intravitreal injection of 1 microliter of bizelesin solution or 1 microliter of control diluent. The dose of bizelesin ranged from 0.6 picogram to 0.6 nanograms. On the evening of P16 the mice were given an intravitreal injection of anti-mouse platelet endothelial cell adhesion molecule-1 (PECAM-1) antibody, which stain new blood vessels. On P17, the retinas were isolated, flat mounts prepared, and the area of neovascularization was determined with fluorescent microscopy and computerized image analysis.
# [5] = tested on: HCT116 colon cancer cells; settings: 250 times the GC50 concentration for 4 days; cited from earlier work
# [6] = tested on: approximately 60 different human cancer cell lines; settings: average value across the cell lines, 48 hours incubation; cited from earlier work
# [7] = unless given intravascularly; cited from earlier work
# [8] = tested on: choroidal neovascularization; assay: Laser induced mouse model of choroidal neovascularization, intravitreal injection; settings: for inhibition of neovascularization in the area of the laser burn: single intravitreal dose of 0.6 ng, day 14
# From the text: Details of the model are provided in Xie, B. et al., “Blockade of Sphingosine-1-phosphate Reduces Macrophage Influx and Retinal and Choroidal Neovascularization,” J Cell Physiol, 218(1): 192-8 (January 2009 Bizelesin was formulated in PBS as described in Example 1. In brief, 5-6 week old C57BL/6 mice on day 0 were anesthetized and choroidal neovascularization was induced by laser photocoagulation-induced rupture of Bruch's membrane. The mice were then given an intravitreal injection of 1 microliter of control diluent in one eye and in the contralateral fellow eye 1 microliter of solution containing 6 ng to 0.006 ng of Bizelesin. Ten mice were employed per dose level. On day 14 the mice were perfused with fluorescein-labeled dextran, the retinas were isolated, flat mounts prepared, and the area of neovascularization was determined with fluorescent microscopy and computerized image analysis.
# [9] = tested on: cellular DNA; settings: cited from earlier work
# [10] = tested on: retinal fibrosis; settings: long-term follow-up; cited from earlier work
molecule,measurement,setting,value
Cc1c[nH]c2c1[C@@]13C[C@@H]1CN(C(=O)c1cc4cc(NC(=O)c5cc6ccccc6o5)ccc4[nH]1)C3=CC2=O [adozelesin],DNA repair response,[1],does not trigger A DNA repair response
same,GI50 (inhibition of cell proliferation),[2],picomolar to sub-picomolar range
Cc1c[nH]c2c(O)cc3c(c12)[C@H](CCl)CN3C(=O)c1cc2cc(NC(=O)Nc3ccc4[nH]c(C(=O)N5C[C@@H](CCl)c6c5cc(O)c5[nH]cc(C)c65)cc4c3)ccc2[nH]1 [bizelesin],ratio of LC50 to TGI,[3],480
same,clinical evidence of ocular toxicity,[4]; intravitreal 0.6 nanogram,without any clinical evidence of ocular toxicity
same,average area of neovascularization compared to diluent (p value),[4]; single dose of 0.06 ng,highly statistically significant
same,average area of neovascularization compared to diluent (p value),[4]; single dose of 0.6 ng,highly statistically significant
same,inhibition of proliferative retinopathy and neovascularization,"[4]; single intravitreal injection of 0.6 nanogram on P12, read on P17",nearly complete inhibition
same,apoptosis,[5],did not cause apoptosis
same,TGI (drug concentration that completely inhibited cell growth),[6],picomolar range
same,systemic bioavailability,[7],poor systemic bioavailability
same,clinical evidence of ocular toxicity,[8]; intravitreal 6 ng to 0.006 ng,no clinical evidence of ocular toxicity
same,inhibition of neovascularization in the area of the laser burn,[8],nearly complete inhibition
same,inhibition of neovascularization in the area of the laser burn,[8]; listed as Bizelesin,dramatic inhibition
same,GI50 (inhibition of cell proliferation),[2],picomolar to sub-picomolar range
N.N.[Cl][Pt][Cl] [cisplatin],DNA adducts formed at concentrations that inhibit cell growth by 50%,[9],"approximately 14,000"
B1,patients who developed retinal fibrosis,[10],50%
